Laboratory results published in article PMC6270201, “Eco-Friendly Synthesis and Antiproliferative Evaluation of Some Oxygen Substituted Diaryl Ketones” (Molecules, 2013).

Key:
[1] = test system: T24 (bladder) human-derived tumor cell line; assay: MTT reduction antiproliferative assay, T24 bladder cells; assay type: cell-based; conditions: 48 h incubation, mean of at least three experiments, read-out: EC50 ± SEM T24
Method: (§1) The oxygen-substituted diaryl ketones 3–23 were evaluated for their in vitro antiproliferative activity on a panel of four cell lines, including non-tumor fibroblasts (Balb/3T3) and three human-derived tumor cell lines, namely DU-145 (prostate), T24 (bladder) and MCF7 (breast), using the conventional microculture tetrazolium reduction assay.
(§2) These values were calculated from their effects on MTT reduction in three cancer cell lines and Balb/3T3 non transformed mouse fibroblasts as a function of their concentration during 48 h of incubation. All three cancer cell lines were similarly sensitive to these compounds. […] The biological activity differences of compounds 12 and 22 with respect to their analogues could be attributed to the 3,4,5-trimethoxy substitution on the A-phenyl ring. According to literature precedents, the 3,4,5-trimethoxyphenyl ring is considered essential for the antitubulin activity of a broad variety of antimitotic compounds [36, 38, 39, 40, 41, 42, 43, 44, 45]. […] In this context, only compound 22 have a good mean selectivity index (2.45).
(§3) Human cancer cell lines (T24, DU-145, MCF7) were cultured in high-glucose Dulbecco's modified Eagle medium (Gibco, Grand Island, NY, USA) supplemented with 10% foetal calf serum, penicillin (100 U/mL), and streptomycin (100 μg/mL). Balb/3T3 cells (normal mouse fibroblasts) were cultured in the same medium, except that the foetal calf serum was replaced by 10% newborn calf serum. All cultures were kept at 37 °C in 95% air/5% CO2 at 100% humidity. Phosphate-buffered saline (PBS) was purchased from Gibco. Cells were incubated at the indicated times at 37 °C with or without hydroquinones at various concentrations.
(§4) The cytotoxicity of the bis aryl ketones was assessed by following the reduction of MTT (3-(4,5-dimethylthiazolyl-2)-2,5-diphenyltetrazolium bromide) to formazan blue. Briefly, cells were seeded into 96-well plates at a density of 10,000 cells/well for 24 h and then incubated for 48 h with or without the compounds. Cells were then washed twice with warm PBS and incubated with MTT (0.5 mg/mL) for 2 h at 37 °C. Incubation medium was thereafter discarded and the blue formazan crystals were solubilized by adding 100 μL DMSO/well. The colour solution was subsequently read at 550 nm. Results are expressed as % of MTT reduction compared to untreated control conditions. The calculation of EC50 values was performed by using GraphPad Prism software (San Diego, CA, USA).

[2] = test system: Balb/3T3 non-tumor fibroblasts; assay: MTT reduction assay, non-tumor fibroblasts; assay type: cell-based; conditions: Mus musculus, 48 h incubation, mean of at least three experiments, read-out: EC50 ± SEM BALB/3T3
Method: as §1, §2, §3, §4

[3] = test system: DU-145 (prostate) human-derived tumor cell line; assay: MTT reduction antiproliferative assay, DU-145 prostate cells; assay type: cell-based; conditions: 48 h incubation, mean of at least three experiments, read-out: EC50 ± SEM DU-145
Method: as §1, §2, §3, §4

[4] = test system: MCF7 (breast) human-derived tumor cell line; assay: MTT reduction antiproliferative assay, MCF7 breast cells; assay type: cell-based; conditions: 48 h incubation, mean of at least three experiments, read-out: EC50 ± SEM MCF-7
Method: as §1, §2, §3, §4

[5] = test system: Balb/3T3 fibroblasts vs T24, DU-145 and MCF7 tumor cells; assay: Mean selective index, fibroblasts versus tumor cells; assay type: cell-based; conditions: EC50 values fibroblasts/EC50 values tumor cells
Method: These values were calculated from their effects on MTT reduction in three cancer cell lines and Balb/3T3 non transformed mouse fibroblasts as a function of their concentration during 48 h of incubation.

[6] = test system: NCI screen panel; design: method as in PMID 9572894; conditions: read-out: mean panel GI50 (growth inhibitory) value; cited from earlier work

Compound	EC50 [1] [µM]	melting point [°C]	EC50 [3] [µM]	EC50 [4] [µM]	EC50 [2] [µM]	MSI: Mean Selective Index [5]	GI50 [6] [µM]
COc1cc(C(=O)c2cc(O)ccc2O)cc(OC)c1O [compound 13, (2,5-Dihydroxyphenyl)(4'-hydroxy-3',5'-dimethoxyphenyl)methanone]	> 350	200 to 201	113 ± 10.7	> 350	19.1 ± 3.1		
Cc1ccc(C(=O)c2cc(O)ccc2O)cc1 [compound 6, (2,5-Dihydroxyphenyl)(4'-methylphenyl)methanone]	209 ± 19.5	135 to 136	101 ± 9.5	142 ± 15.3	78.3 ± 6.4	0.57	
Cc1cccc(C(=O)c2cc(O)c3ccccc3c2O)c1 [compound 15, (1,4-Dihydroxynaphthalen-2-yl)(3'-methylphenyl)methanone]	137 ± 11.7	154 to 155	147 ± 15.9	145 ± 12.7	142 ± 13.9	0.99	
COc1cccc(C(=O)c2cc(O)ccc2O)c1 [compound 7, (2,5-Dihydroxyphenyl)(3'-methoxyphenyl)methanone]	210 ± 20.5	97 to 98	166 ± 15.8	154 ± 12.3	118 ± 19.5	0.68	
COc1ccc(C(=O)c2cc(O)ccc2O)cc1 [compound 8, (2,5-Dihydroxyphenyl)(4'-methoxyphenyl)methanone]	168 ± 12.2	144 to 145	170 ± 15.5	191 ± 17.5	85.2 ± 9.7	0.49	
COc1ccc(OC)c(C(=O)c2cc(O)ccc2O)c1 [compound 9, (2,5-Dihydroxyphenyl)(2',5'-dimethoxyphenyl)methanone]	150 ± 18.4	135 to 136	130 ± 12.5	164 ± 13.8	43.7 ± 7.6	0.29	
CO[C@@]12[C@H](COC(N)=O)C3=C(C(=O)C(C)=C(N)C3=O)N1C[C@@H]1N[C@@H]12 [MIT, mitomycin C, reference compound]	42.2 ± 5.8		14.3 ± 2.6	16.8 ± 2.9	27.3 ± 3.3		
COc1ccc(C(=O)c2cc(O)ccc2O)cc1OC [compound 10, (2,5-Dihydroxyphenyl)(3,4-dimethoxyphenyl)methanone]	147 ± 19.2	79 to 81	140 ± 13.6	183 ± 17.7	35.4 ± 4.7	0.23	
O=C(c1ccccc1)c1cc(O)ccc1O [compound 3, (2,5-Dihydroxyphenyl)(phenyl)methanone]	186 ± 20.4	121 to 122	205 ± 21.5	190 ± 19.2	38.5 ± 5.5	0.20	
COc1ccc(C(=O)c2cc(OC)c(OC)c(OC)c2)cc1O [phenstatin]							0.0601
Cc1cccc(C(=O)c2cc(O)ccc2O)c1 [compound 5, (2,5-Dihydroxyphenyl)(3'-methylphenyl)methanone]	202 ± 15.9	119 to 120	186 ± 17.8	226 ± 24.2	100 ± 9.5	0.49	
Cc1ccccc1C(=O)c1cc(O)ccc1O [compound 4, (2,5-Dihydroxyphenyl)(2'-methylphenyl)methanone]	172 ± 13.2	104 to 105	172 ± 19.7	181 ± 15.8	184 ± 17.6	1.06	
Cc1ccccc1C(=O)c1cc(O)c2ccccc2c1O [compound 14, (1,4-Dihydroxynaphthalen-2-yl)(2'-methylphenyl)methanone]	143 ± 9.5	132 to 133	144 ± 17.7	152 ± 14.5	226 ± 25.4	1.54	
COc1cc(C(=O)c2cc(O)ccc2O)ccc1O [compound 11, (2,5-Dihydroxyphenyl)(4'-hydroxy-3'-methoxyphenyl)methanone]	154 ± 14.5	221 to 222	168 ± 15.9	177 ± 19.4	78 ± 9.3	0.47	

Continued by falling EC50 [1], values first:

EC50 [1] [µM]	melting point [°C]	EC50 [3] [µM]	EC50 [4] [µM]	Compound	EC50 [2] [µM]	MSI: Mean Selective Index [5]	GI50 [6] [µM]
135 ± 12.8	150 to 151	158 ± 13.7	134 ± 14.9	Cc1ccc(C(=O)c2cc(O)c3ccccc3c2O)cc1 [compound 16, (1,4-Dihydroxynaphthalen-2-yl)(4'-methylphenyl)methanone]	139 ± 15.2	0.98	
133 ± 12.4	149 to 150	139 ± 11.3	128 ± 13.6	COc1cccc(C(=O)c2cc(O)c3ccccc3c2O)c1 [compound 17, (1,4-Dihydroxynaphthalen-2-yl)(3'-methoxyphenyl)methanone]	109 ± 11.1	0.82	
130 ± 10.1	160 to 161	129 ± 17.2	> 310	COc1ccc(OC)c(C(=O)c2cc(O)c3ccccc3c2O)c1 [compound 19, (1,4-Dihydroxynaphthalen-2-yl)(2',5'-dimethoxyphenyl)methanone]	100 ± 8.9	0.77	
127 ± 10.6	150 to 151	77.5 ± 6.5	125 ± 10.2	COc1ccc(C(=O)c2cc(O)c3ccccc3c2O)cc1 [compound 18, (1,4-Dihydroxynaphthalen-2-yl)(4'-methoxyphenyl)methanone]	107 ± 12.3	1.03	
112 ± 9.3	173 to 174	114 ± 9.5	130 ± 14.8	COc1cc(C(=O)c2cc(O)c3ccccc3c2O)cc(OC)c1O [compound 23, (1,4-Dihydroxynaphthalen-2-yl)(4'-hydroxy-3',5'-dimethoxyphenyl)methanone]	99.6 ± 7.5	0.84	
86.6 ± 9.6	221 to 222	89 ± 7.3	15.7 ± 4.6	COc1cc(C(=O)c2cc(O)c3ccccc3c2O)ccc1O [compound 21, (1,4-Dihydroxynaphthalen-2-yl)(4'-hydroxy-3'-methoxyphenyl)methanone]	15.7 ± 3.9	0.45	
46.8 ± 5.1	212 to 213	61.8 ± 5.6	12.2 ± 3.8	COc1ccc(C(=O)c2cc(O)c3ccccc3c2O)cc1OC [compound 20, (1,4-Dihydroxynaphthalen-2-yl)(3',4'-dimethoxyphenyl)methanone]	2.8 ± 0.6	0.11	
13.5 ± 1.9	189 to 191	5.9 ± 0.8	20.2 ± 4.5	COc1cc(C(=O)c2cc(O)c3ccccc3c2O)cc(OC)c1OC [compound 22, (1,4-Dihydroxynaphthalen-2-yl)(3',4',5'-trimethoxyphenyl)methanone]	25.1 ± 3.9	2.45	
3.6 ± 1.4	68 to 70	1.2 ± 0.6	53.6 ± 6.7	COc1cc(C(=O)c2cc(O)ccc2O)cc(OC)c1OC [compound 12, (2,5-Dihydroxyphenyl)(3',4',5'-trimethoxyphenyl)methanone]	1.5 ± 0.4	0.57	
0.65 ± 0.07		0.42 ± 0.03	0.33 ± 0.05	COc1cccc2c1C(=O)c1c(O)c3c(c(O)c1C2=O)C[C@@](O)(C(=O)CO)C[C@@H]3O[C@H]1C[C@H](N)[C@H](O)[C@H](C)O1 [DOX, doxorubicin, reference compound]	0.19 ± 0.01	0.44	
